In patent US20100331409A1, “Use of Methyl Cinnamate in the Inhibition of Candida Albicans Biofilms” (Barak Biotechnology Co., Ltd., priority 2009, published 2010):

Tests used:
Format in all cases: cell-based
Candida albicans [1] = experiment: MIC assay against Candida albicans; settings: 1×10^5 CFU/ml, 96-well plates, 37° C. for 16 hours
Experimental: (§1) A single colony of Candida albicans was selected from YPD plate, seeded in YPD liquid medium and then cultured at 30° C. and 100 rpm for 16 hours. The medium was diluted to 1×10^5 CFU/ml. The diluted medium was added to 96-well plates containing different concentrations of methyl cinnamate and essential oil of Zanthoxylum armatum (0.00625% to 1% for methyl cinnamate and 0.025% to 0.5% for essential oil) and cultured at 37° C. for 16 hours.

Candida albicans [2] = experiment: MFC assay against Candida albicans; settings: 1×10^5 CFU/ml, 96-well plates, 37° C. for 16 hours
Experimental: as §1

[3] = tested on: biofilm of Candida albicans; experiment: Inhibition of biofilm of Candida albicans on polystyrene (XTT and crystal violet); settings: concentration ranging from 0.015% to 0.125%; added 4 hours after adhesion, cultured at 37° C. to 48 hours; XTT and CV
Experimental: A single colony of Candida albicans was selected from YPD plate (1% (w/v) yeast extract, 2% (w/v) peptone, 2% (w/v) dextrose and 1.5% (w/v) agar), seeded in YPD liquid medium (1% (w/v) yeast extract, 2% (w/v) peptone and 2% (w/v) dextrose) and then cultured at 30° C. and 100 rpm for 16 hours. The YPD medium was washed out and the amounts of the Candida albicans cells were counted using Hematocyte Counter. The cells were diluted with RPMI 1640 medium (Gibco, Invitroge, Calif., U.S.A.) to 5×10^5 cells/ml. 200 μL of 5×10^5 cells/ml medium were added to 96-well plate and placed at 37° C. for 1 hour so that the cells could adhere to the bottom of the plate. The non-adhered cells were washed out with phosphate buffer. The material of the 96-well plate was polystyrene, which is a common material for medical device such as syringe. Subsequently, RPMI 1640 medium was added to the plate and cultured at 37° C. […] The numbers of cells in the biofilm were determined by a colorimetric assay using XTT [2,3-Bis(2-methoxy-4-nitro-5-sulfo-phenyl)-2H-tetrazolium-5-carboxanilide] (Sigma, Mo., U.S.A.) and their biomass was determined by crystal violet to find out the mature development of biofilm (Ramage G et al., Inhibition of Candida albicans Biofilm Formation by Farnesol, A Quorum-Sensing Molecule. Appl Environ Microbiol 2002, 68: 5459-5463). […]

Q: How did the MIC (Candida albicans [1]) turn out when `COC(=O)/C=C/c1ccccc1` [methyl cinnamate] was run?
A: 0.1%

Q: What about the MFC (Candida albicans [2]) of the same molecule?
A: 0.8%

Q: What about the biofilm inhibited [3] of the same molecule?
A: 10 to 60%
